Where no end group is shown, it is not given here.

The values below come from article PMC12552119, “Tailored structured peptide design with a key-cutting machine approach” (Nature Machine Intelligence, 2025).

The test system of one series is HEK293T cells. As to the kind of experiment: Cytotoxicity, MTT assay. Particulars: 24 h. Type of series: cell-based, human. On the procedure:
Fig. 3 Mechanism of action and cytotoxic activity of designed peptides. a, To assess whether the peptides act on bacterial membranes, all active peptides against A. baumannii American Type Culture Collection (ATCC) 19606 were subjected to outer-membrane permeabilization, and peptides active against A. baumannii ATCC 19606 and vancomycin-resistant E. faecalis ATCC 700802 were tested in cytoplasmic-membrane depolarization assays. b, The fluorescent probe NPN was used to assess membrane permeabilization induced by the tested peptides. c,d, The fluorescent probe DiSC3-5 was used to evaluate membrane depolarization caused by the designed peptides in A. baumannii ATCC 19606 (c) and vancomycin-resistant E. faecalis ATCC 700802 (d). […] All experiments were performed in three independent replicates. Panel a created with BioRender.com. Source data TEXT PRINTED IN THE PICTURE: (e) AT1: CC50 (μmol l^-1), HEK293T cells: 2,758 | (e) AT2: CC50 (μmol l^-1), HEK293T cells: 2 × 10^37 | (e) AT3: CC50 (μmol l^-1), HEK293T cells: 269 | (e) AT4: CC50 (μmol l^-1), HEK293T cells: 3,015 | (e) AT5: CC50 (μmol l^-1), HEK293T cells: 6 × 10^41 | (e) NE1: CC50 (μmol l^-1), HEK293T cells: 6 × 10^33 | (e) NE2: CC50 (μmol l^-1), HEK293T cells: 507 | (e) NE3: CC50 (μmol l^-1), HEK293T cells: 655 | (e) NE4: CC50 (μmol l^-1), HEK293T cells: 2 × 10^32 | (e) NG1: CC50 (μmol l^-1), HEK293T cells: 351 | (e) NG2: CC50 (μmol l^-1), HEK293T cells: 1 × 10^35 | (e) NG3: CC50 (μmol l^-1), HEK293T cells: 2 × 10^46 DOUBTS OF THE COPYIST ABOUT THIS PICTURE: AT2, CC50: small exponent, 37 or 57 / AT5, CC50: small exponent, 41 uncertain / NE1, CC50: small exponent, 33 or 38 / NE4, CC50: small exponent, 32 or 52 / NG2, CC50: small exponent, 35 or 36 / NG3, CC50: small exponent, 46 or 48 […]
HEK293T cells were obtained from the ATCC (CRL-3216). The cells were cultured in high-glucose DMEM supplemented with 1% penicillin and streptomycin (antibiotics) and 10% fetal bovine serum and grown at 37 °C in a humidified atmosphere containing 5% CO2.
One day before the experiment, an aliquot of 100 μl of the cells at 50,000 cells ml^−1 was seeded into each well of the cell-treated 96-well plates used in the experiment (that is, 5,000 cells per well)[45]. The attached HEK293T cells were then exposed to increasing concentrations of the peptides (4–64 μmol l^−1) for 24 h. After the incubation period, we performed the (3-(4,5-dimethylthiazol-2-yl)-2,5-diphenyltetrazolium bromide) tetrazolium reduction assay (MTT assay)[45]. […] The resulting salts were then resuspended in hydrochloric acid (0.04 mol l^−1) in anhydrous isopropanol and quantified by spectrophotometric measurements of absorbance at 570 nm. […]

A further series concerns A. baumannii ATCC 19606. It counts as cell-based, Acinetobacter baumannii. The following applies: ATCC 19606, 24 h. On the procedure: (§1) Fig. 2 Antimicrobial activity and secondary structure of computationally designed peptides. a, Structure prediction of the synthesized peptides. b, Heatmap of the antimicrobial activities of the peptides against 11 clinically relevant pathogens, including four strains resistant to conventional antibiotics. Briefly, 10^6 bacterial cells and serially diluted peptides (1-64 μmol l^−1) were incubated at 37 °C. One day after treatment, the optical density at 600 nm was measured in a microplate reader to evaluate bacterial growth in the presence of the peptides. MIC values in the heatmap are the mode of the replicates in each condition. c–f, Ternary plots showing the percentage of secondary structure for each peptide (at 50 μmol l^−1) in four different solvents: water (c), 60% TFE in water (d), 10 mmol l^−1 SDS in water (e) and 50% methanol (MeOH) in water (f). Secondary structure fractions were calculated using the BeStSel server. […] An error of one column cannot be fully excluded. / Panel b: AT1, AT2, AT3 and all blank cells print no number and are left out.
(§2) In this study, we used the following pathogenic bacterial strains: A. baumannii ATCC 19606, E. coli AIC221 (E. coli MG1655 phnE_2::FRT (control strain for AIC222)) and E. coli AIC222 (E. coli MG1655 pmrA53 phnE_2::FRT (polymyxin resistant; colistin-resistant strain)), Klebsiella pneumoniae ATCC 13883, Pseudomonas aeruginosa PAO1, P. aeruginosa PA14 and Staphylococcus aureus ATCC 12600. All pathogens were grown in Luria–Bertani (LB) broth and on LB agar. Pseudomonas isolation (P. aeruginosa strains) agar plates were exclusively used in the case of Pseudomonas species. In all the experiments, bacteria were inoculated from one isolated colony and grown overnight (16 h) in liquid medium at 37 °C. On the following day, inocula were diluted 1:100 in fresh media and incubated at 37 °C to mid-logarithmic phase.
(§3) Broth microdilution assays[64] were conducted to establish the MIC for each peptide. Peptides were added to untreated polystyrene 96-well microtiter plates and serially diluted twofold in sterile water, ranging from 1 to 64 μmol l^−1. A bacterial inoculum at a concentration of 10^6 CFU ml^−1 in LB medium was then mixed in a 1:1 ratio with the peptide solution. […] Each assay was performed in three independent replicates.

Another series concerns K. pneumoniae ATCC 13883. Type of series: cell-based, Klebsiella pneumoniae. Particulars: ATCC 13883, 24 h. The method, then: as §1, §2, §3
Series [1] deals with E. faecium ATCC 700221 - VRE. Type of series: cell-based. Particulars: ATCC 700221, 24 h. The method, then:
as §1, §3

The test system of series [2] is S. aureus ATCC BAA-1556 - MRSA. Type of series: cell-based. Particulars: ATCC BAA-1556, 24 h. The method, then:
as §1, §3

A further series deals with S. aureus ATCC 12600. Type of series: cell-based, Staphylococcus aureus. The following applies: ATCC 12600, 24 h. The method, then: as §1, with “out. […]” for “out.”

Take FRLAAVLHFHIH [AT4]: in the series with HEK293T cells, the “CC50, cytotoxic concentration leading to 50% cell lysis” value was found to be 3.015 mM. Also, the minimum inhibitory concentration (MIC) is 32 µmol/L against A. baumannii ATCC 19606; 8 µmol/L against K. pneumoniae ATCC 13883; 32 µmol/L in series [1]; 16 µmol/L in series [2]; 64 µmol/L in the series on S. aureus ATCC 12600.
